Measurements as given in PMC11087268, “A folate inhibitor exploits metabolic differences in Pseudomonas aeruginosa for narrow-spectrum targeting” (Nature Microbiology, 2024).
Converted amounts (≈) assume the structure as drawn. “And” between values parts separate entries of the source, which are not always exact repeats. Identical values can stand only once.

Key:
P. aeruginosa PA14 = experiment: Growth of P. aeruginosa PA14 in TMI-supplemented media with fluorofolin; format: cell-based, Pseudomonas aeruginosa; conditions: for OD600 of P. Aeruginosa PA14: Fluorofolin
[1] = system: WI-38 (embryonic lung tissue); experiment: Mammalian cell cytotoxicity, WI-38; format: cell-based, human
E. coli MG1655 = experiment: Growth competition assay, c.f.u. of E. coli MG1655; format: cell-based, Escherichia coli; conditions: for E.coli MG1655 CFU/mL: Panel C
Description: Cultures of each species were grown separately as well as being mixed 1:1. […] The number of colonies on Pseudomonas Selection Agar plates is reported as the c.f.u. ml^−1 of P. aeruginosa. To calculate c.f.u.s ml^−1 of E. coli MG1655, c.f.u.s ml^−1 were determined from LB agar plates and the c.f.u.s ml^−1 of P. aeruginosa were subtracted from these values.

[2] = system: Acinetobacter baumannii BAA-125; experiment: MIC against A. baumannii BAA-125 in LB broth; format: cell-based; conditions: BAA125, 16 h, 37 °C, OD600
Description: Overnight cultures were diluted 1:150 in LB broth and added to a 96-well plate. Antibiotics were serially diluted 1:2 and added to columns of the 96-well plate and grown at 37 °C with continuous shaking. Cell growth was measured using optical density at 600 nm (OD600). MIC assays were performed in either BioTek Synergy HT or Tecan InfiniteM200 Pro microplate readers.

[3] = system: PBMC (peripheral blood mononuclear cell); experiment: Mammalian cell cytotoxicity, PBMC; format: cell-based, human
Description: HK-2 (500 cells per well) (ATCC CRL-2190), HLF (500 cells per well) (Cell Applications 506K-05a), WI-38 (500 cells per well) (ATCC CCL-75) or PBMC (5,000 cells per well) (TPCS PB010C) cells were seeded in white opaque 384-well plates. After 24 h, DMSO or compounds were added in 3-fold dilutions and cells incubated for 72 h. For PBMC, CellTiter-Glo reagent was added in equal volume and incubated for 30 min, after which luminescence was read. For other cell types, CyQUANT detection reagent was added in equal volume and cells incubated for 1 h, after which fluorescence was read with standard green filter set […]. Cell toxicity was evaluated by Pharmaron.

## Nc1nc(N)c2c(ccc3c2ccn3Cc2ccnc(F)c2)n1 [fluorofolin]
P. aeruginosa PA14; Time 85.415 min
  OD600 of P. Aeruginosa PA14: 0.00495
P. aeruginosa PA14; Time 96.0917 min
  OD600 of P. Aeruginosa PA14: 0.00565
P. aeruginosa PA14; Time 106.768 min
  OD600 of P. Aeruginosa PA14: 0.006
P. aeruginosa PA14; Time 117.445 min
  OD600 of P. Aeruginosa PA14: 0.0073
P. aeruginosa PA14; Time 128.123 min
  OD600 of P. Aeruginosa PA14: 0.0085
P. aeruginosa PA14; Time 138.8 min
  OD600 of P. Aeruginosa PA14: 0.00865
P. aeruginosa PA14; Time 149.477 min
  OD600 of P. Aeruginosa PA14: 0.0096
P. aeruginosa PA14; Time 160.153 min
  OD600 of P. Aeruginosa PA14: 0.01045
P. aeruginosa PA14; Time 170.83 min
  OD600 of P. Aeruginosa PA14: 0.01095
P. aeruginosa PA14; Time 181.507 min
  OD600 of P. Aeruginosa PA14: 0.01175
P. aeruginosa PA14; Time 192.183 min
  OD600 of P. Aeruginosa PA14: 0.0127
P. aeruginosa PA14; Time 202.86 min
  OD600 of P. Aeruginosa PA14: 0.0136
P. aeruginosa PA14; Time 213.537 min
  OD600 of P. Aeruginosa PA14: 0.01395
P. aeruginosa PA14; Time 224.213 min
  OD600 of P. Aeruginosa PA14: 0.01515
P. aeruginosa PA14; Time 234.89 min
  OD600 of P. Aeruginosa PA14: 0.01575
P. aeruginosa PA14; Time 245.567 min
  OD600 of P. Aeruginosa PA14: 0.0166
P. aeruginosa PA14; Time 256.243 min
  OD600 of P. Aeruginosa PA14: 0.0165
P. aeruginosa PA14; Time 266.922 min
  OD600 of P. Aeruginosa PA14: 0.01705
P. aeruginosa PA14; Time 277.598 min
  OD600 of P. Aeruginosa PA14: 0.01815
P. aeruginosa PA14; Time 288.275 min
  OD600 of P. Aeruginosa PA14: 0.01805
P. aeruginosa PA14; Time 298.952 min
  OD600 of P. Aeruginosa PA14: 0.0199
P. aeruginosa PA14; Time 309.628 min
  OD600 of P. Aeruginosa PA14: 0.0191
P. aeruginosa PA14; Time 320.305 min
  OD600 of P. Aeruginosa PA14: 0.0205
P. aeruginosa PA14; Time 330.982 min
  OD600 of P. Aeruginosa PA14: 0.01975
P. aeruginosa PA14; Time 341.658 min
  OD600 of P. Aeruginosa PA14: 0.0208
P. aeruginosa PA14; Time 352.335 min
  OD600 of P. Aeruginosa PA14: 0.0206
P. aeruginosa PA14; Time 363.012 min
  OD600 of P. Aeruginosa PA14: 0.02055
P. aeruginosa PA14; Time 373.688 min
  OD600 of P. Aeruginosa PA14: 0.0208
P. aeruginosa PA14; Time 384.365 min
  OD600 of P. Aeruginosa PA14: 0.02105
P. aeruginosa PA14; Time 395.042 min
  OD600 of P. Aeruginosa PA14: 0.02085
P. aeruginosa PA14; Time 405.718 min
  OD600 of P. Aeruginosa PA14: 0.02185
P. aeruginosa PA14; Time 416.395 min
  OD600 of P. Aeruginosa PA14: 0.02155
P. aeruginosa PA14; Time 427.072 min
  OD600 of P. Aeruginosa PA14: 0.02275
P. aeruginosa PA14; Time 437.748 min
  OD600 of P. Aeruginosa PA14: 0.02165
P. aeruginosa PA14; Time 448.425 min
  OD600 of P. Aeruginosa PA14: 0.0225
P. aeruginosa PA14; Time 459.102 min
  OD600 of P. Aeruginosa PA14: 0.0221
P. aeruginosa PA14; Time 469.78 min
  OD600 of P. Aeruginosa PA14: 0.0226
P. aeruginosa PA14; Time 480.457 min
  OD600 of P. Aeruginosa PA14: 0.02355
P. aeruginosa PA14; Time 491.133 min
  OD600 of P. Aeruginosa PA14: 0.02265
P. aeruginosa PA14; Time 501.81 min
  OD600 of P. Aeruginosa PA14: 0.02275
P. aeruginosa PA14; Time 512.487 min
  OD600 of P. Aeruginosa PA14: 0.023
P. aeruginosa PA14; Time 523.163 min
  OD600 of P. Aeruginosa PA14: 0.02375
P. aeruginosa PA14; Time 533.84 min
  OD600 of P. Aeruginosa PA14: 0.02255
P. aeruginosa PA14; Time 544.517 min
  OD600 of P. Aeruginosa PA14: 0.02295
P. aeruginosa PA14; Time 555.193 min
  OD600 of P. Aeruginosa PA14: 0.0233
P. aeruginosa PA14; Time 565.87 min
  OD600 of P. Aeruginosa PA14: 0.02345
P. aeruginosa PA14; Time 576.547 min
  OD600 of P. Aeruginosa PA14: 0.0235
P. aeruginosa PA14; P. aeruginosa PA14, 0.3 mM TMI, fluorofolin 2× MIC
  rescue of growth inhibition by TMI supplementation: unable to rescue
[1]; Homo sapiens, WI-38, 72 h, CyQUANT, read-out: IC50 Fluorofolin
  IC50: 14.4 µg/mL (≈ 46.8 µM)
[1]; WI-38 cells
  increase in IC50 compared with IRS-16: 58.5 fold
E. coli MG1655; PA14 : E. coli MG1655 1:1, 50 μg ml^−1 fluorofolin, selective plating
  growth in co-culture with TMI supplementation: but not E. coli
E. coli MG1655; Fluorofolin
  E.coli MG1655 CFU/mL: 10 CFU/mL
E. coli MG1655; Fluorofolin + TMI
  E.coli MG1655 CFU/mL: 1050000 CFU/mL and 1500000 CFU/mL and 1350000 CFU/mL
[2]
  MIC: 31.2 µg/mL
[3]; Homo sapiens, PBMC, 72 h, CellTiter-Glo, read-out: IC50 Fluorofolin
  IC50: 39.8 µg/mL (≈ 129 µM)
[3]; PBMCs
  increase in IC50 compared with IRS-16: 9.6 fold
